One test deals with recombinant human S1P1 receptor (Homo sapiens, UniProt P21453). As to the kind of experiment: GTPγS assay to determine EC50 values. Type of test: biochemical. As to conditions: 35S-GTPγS binding, membrane preparations of CHO cells expressing recombinant human S1P1 receptor, pH 7.4. The procedure: GTPγS binding assays are performed in 96 well microtiter plates (Nunc, 442587) in a final volume of 200 μl, using membrane preparations of CHO cells expressing recombinant human S1P1 receptor. Assay conditions are 20 mM Hepes (Fluka, 54461), 100 mM NaCl (Fluka, 71378), 5 mM MgCl2 (Fluka, 63064), 0.1% BSA (Calbiochem, 126609), 1 μM GDP (Sigma, G-7127), 2.5% DMSO (Fluka, 41644), […] ^35S-GTPγS (Amersham Biosciences, SJ1320). The pH is 7.4. Test compounds are dissolved and diluted in 100% DMSO and pre-incubated at room temperature for 30 min in 150 μl of the above assay buffer, in the absence of ^35S-GTPγS. After addition of 50 μl of ^35S-GTPγS, the assay is incubated for 1 h at rt. The assay is terminated by transfer of the reaction mixture to a Multiscreen plate (Millipore, MAHFC1H60) using a cell harvester from Packard Biosciences, and the plates are washed with ice-cold 10 mM Na2HPO4/NaH2PO4 (70%/30%), dried, sealed at the bottom and, after addition of 25 μl MicroScint20 (Packard Biosciences, order #6013621), sealed on the top. Membrane-bound ^35S-GTPγS is measured with a TopCount from Packard Biosciences.
Chain of recombinant human S1P1 receptor (P21453 whole entry): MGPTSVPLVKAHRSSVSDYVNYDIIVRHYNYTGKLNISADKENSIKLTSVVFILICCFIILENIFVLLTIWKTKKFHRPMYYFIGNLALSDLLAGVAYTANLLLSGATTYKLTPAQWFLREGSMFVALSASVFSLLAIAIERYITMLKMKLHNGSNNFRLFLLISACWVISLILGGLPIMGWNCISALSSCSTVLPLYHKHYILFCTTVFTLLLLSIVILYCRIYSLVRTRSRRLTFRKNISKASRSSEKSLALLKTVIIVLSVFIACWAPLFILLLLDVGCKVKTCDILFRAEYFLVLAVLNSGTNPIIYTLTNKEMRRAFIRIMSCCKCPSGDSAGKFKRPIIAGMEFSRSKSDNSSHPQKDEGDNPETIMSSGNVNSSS
EC50 is the concentration of agonist inducing 50% of the maximal specific ^35S-GTPγS binding. Specific binding is determined by subtracting non-specific binding from maximal binding. Maximal binding is the amount of cpm bound to the Multiscreen plate in the presence of 10 μM of S1P. Non-specific binding is the amount of binding in the absence of an agonist in the assay.
The EC50 values were determined according to the method described above: […]
(GTPγS resists hydrolysis and so accumulates on activated G proteins.)
As a reminder, the EC50 is the concentration at which the effect is half-maximal. Regarding `Cc1cc(CCC(=O)c2scc(CC(C)C)c2CC(C)C)cc(C)c1O` [Example 7, 1-(3,4-diisobutyl-thiophen-2-yl)-3-(4-hydroxy-3,5-dimethyl-phenyl)-propan-1-one], the EC50 is 8.4 nM.

Take `CCCc1c(CC(C)C)csc1C(=O)/C=C/c1cc(C)c(O)c(C)c1` [Example 3, 3-(4-Hydroxy-3,5-dimethyl-phenyl)-1-(4-isobutyl-3-propyl-thiophen-2-yl)-propenone]: the EC50 is 5.8 nM.

With `CCc1cc(-c2noc(-c3cc(CC(C)C)c(C)s3)n2)cc(C)c1OCC(O)CNC(=O)CO` (racemic) [Example 16, rac-N-(3-{2-Ethyl-4-[5-(4-isobutyl-5-methyl-thiophen-2-yl)-[1,2,4]oxadiazol-3-yl]-6-methyl-phenoxy}-2-hydroxy-propyl)-2-hydroxy-acetamide], the EC50 was 5.5 nM.

Consider `CCc1cc(-c2nnc(-c3sc(C)c(CC(C)C)c3C)o2)cc(C)c1OC[C@@H](O)CNC(=O)CO` [Example 109, (S)—N-(3-{2-Ethyl-4-[5-(4-isobutyl-3,5-dimethyl-thiophen-2-yl)-[1,3,4]oxadiazol-2-yl]-6-methyl-phenoxy}-2-hydroxy-propyl)-2-hydroxy-acetamide], for which the EC50 was determined as 0.4 nM.

As for `CCCc1c(CC(C)C)csc1C(=O)CCc1cc(C)c(OC[C@@H](O)CO)c(C)c1` [Example 8, 3-[4-((S)-2,3-dihydroxy-propoxy)-3,5-dimethyl-phenyl]-1-(4-isobutyl-3-propyl-thiophen-2-yl)-propan-1-one], the EC50 came to 7.5 nM.

As to `Cc1cc(-c2noc(-c3scc(CC(C)C)c3C)n2)cc(C)c1OC[C@@H](O)CNC(=O)CO` [Example 70, (S)-2-Hydroxy-N-(2-hydroxy-3-{4-[5-(4-isobutyl-3-methyl-thiophen-2-yl)-[1,2,4]oxa-diazol-3-yl]-2,6-dimethyl-phenoxy}-propyl)-acetamide], the EC50 amounted to 1.1 nM.

With `CCc1cc(-c2noc(-c3cc(CC(C)C)c(C)s3)n2)cc(C)c1CCC(=O)NCCO` [Example 58, 3-{2-ethyl-4-[5-(4-isobutyl-5-methyl-thiophen-2-yl)-[1,2,4]oxadiazol-3-yl]-6-methyl-phenyl}-N-(2-hydroxy-ethyl)-propionamide], the EC50 is 7.5 nM.

Consider `Cc1cc(-c2noc(-c3sc(C)c(CC(C)C)c3C)n2)cc(C)c1OCC(O)CNC(=O)CO` (racemic) [Example 50, rac-2-Hydroxy-N-(2-hydroxy-3-{4-[5-(4-isobutyl-3,5-dimethyl-thiophen-2-yl)-[1,2,4]oxadiazol-3-yl]-2,6-dimethyl-phenoxy}-propyl)acetamide], for which the EC50 worked out at 2.1 nM.

Another test concerns circulating lymphocytes. Put plainly: Assessment of in vivo efficacy: circulating lymphocytes after oral administration. Also on record: unit not given here. The note with it: 6 h after oral administration of 10 mg/kg to normotensive male Wistar rats, as compared to vehicle-treated group; mean±SEM. The procedure:
The efficacy of the compounds of Formula (I) is assessed by measuring the circulating lymphocytes after oral administration of 3 to 30 mg/kg of a compound of Formula (I) to normotensive male Wistar rats. The animals are housed in climate-controlled conditions with a 12 h-light/dark cycle, and have free access to normal rat chow and drinking water. Blood is collected before and 3, 6 and 24 h after drug administration. Full blood is subjected to hematology using Advia Hematology system (Bayer Diagnostics, Züurich, Switzerland).
All data are presented as mean±SEM. Statistical analyses are performed by analysis of variance (ANOVA) using Statistica (StatSoft) and the Student-Newman-Keuls procedure for multiple comparisons. The null hypothesis is rejected when p<0.05.
As to `COc1cc(OCC(O)CNC(=O)CO)ccc1-c1noc(-c2cc(CC(C)C)c(C)s2)n1` (stereo not drawn) [Example 46, 2-hydroxy-N-(2-hydroxy-3-{4-[5-(4-isobutyl-5-methyl-thiophen-2-yl)-[1,2,4]oxadiazol-3-yl]-3-methoxy-phenoxy}-propyl)-acetamide], the Lymphocyte counts is −77 ± 3.

Compound `Cc1cc(-c2noc(-c3scc(CC(C)C)c3C)n2)cc(C)c1OCC(O)CNC(=O)CO` (racemic) [Example 23, rac-2-Hydroxy-N-(2-hydroxy-3-{4-[5-(4-isobutyl-3-methyl-thiophen-2-yl)-[1,2,4]oxadiazol-3-yl]-2,6-dimethyl-phenoxy}-propyl)acetamide] returned a Lymphocyte counts of −73 ± 2.

As for `CCc1cc(-c2nnc(-c3cc(CC(C)C)c(C)s3)o2)cc(C)c1OC[C@@H](O)CNC(=O)CO` [Example 64, N—((S)-3-{2-ethyl-4-[5-(4-isobutyl-5-methyl-thiophen-2-yl)-[1,3,4]oxadiazol-2-yl]-6-methyl-phenoxy}-2-hydroxy-propyl)-2-hydroxy-acetamide], the Lymphocyte counts was −66 ± 1.

Take `Cc1cc(-c2noc(-c3sc(C)c(CC(C)C)c3C)n2)cc(C)c1OCC(O)CNC(=O)CO` (racemic) [Example 50, rac-2-Hydroxy-N-(2-hydroxy-3-{4-[5-(4-isobutyl-3,5-dimethyl-thiophen-2-yl)-[1,2,4]oxadiazol-3-yl]-2,6-dimethyl-phenoxy}-propyl)acetamide]: the Lymphocyte counts was −93 ± 1.

Source of the values: patent US8003800B2, “Thiophene derivatives as S1P1/EDG1 receptor agonists” (Actelion Pharmaceuticals Ltd., priority 2006, dated 2011).
